# Measured values published in patent US20190134039A1, “ANTIVIRAL JAK INHIBITORS USEFUL IN TREATING OR PREVENTING RETROVIRAL AND OTHER VIRAL INFECTIONS” (EMORY UNIVERSITY, priority 2011, published 2019).
# Structures can show the parent of a compound that is named as a salt.
# Test system: HIV-1 containing 4xAZT (D67N/K70R/T215Y/K219Q)
# Test: microbe, parasite or virus in culture
# Type: cell-based
# Conditions: 4xAZT (D67N/K70R/T215Y/K219Q)
SMILES,FI50 (ratio of EC50 against mutant virus:EC50 against wild-type xxLAI),FI90 (ratio of EC90 against mutant virus:EC90 against wild-type xxLAI)
"O=C1Nc2ccc(Cl)cc2[C@@](C#CC2CC2)(C(F)(F)F)O1 [EFV, efavirenz]",3.1,1
"CC(C)OC(=O)OCOP(=O)(CO[C@H](C)Cn1cnc2c(N)ncnc21)OCOC(=O)OC(C)C [TDF, Tenofovir disoproxil fumarate]",1.3,1.3
"OC[C@@H]1CC[C@H](n2cnc3c(O)ncnc32)O1 [ddI, 2′,3′-dideoxyinosine]",3.1,1.4

# Same assay, conditions: Human immunodeficiency virus 1, Lymphocyte
SMILES,EC50 [µM],EC90 [µM]
"O=C1Nc2ccc(Cl)cc2[C@@](C#CC2CC2)(C(F)(F)F)O1 [EFV, efavirenz]",0.07 ± 0.04,
"CC(C)OC(=O)OCOP(=O)(CO[C@H](C)Cn1cnc2c(N)ncnc21)OCOC(=O)OC(C)C [TDF, Tenofovir disoproxil fumarate]",0.07 ± 0.04,1.2 ± 1.1
"OC[C@@H]1CC[C@H](n2cnc3c(O)ncnc32)O1 [ddI, 2′,3′-dideoxyinosine]",35.5 ± 31,77.1 ± 32.4

# Test system: HIV-1 containing A62V/V75I/F77L/F116Y/Q151M
# Test: microbe, parasite or virus in culture
# Type: cell-based
# Conditions: A62V/V75I/F77L/F116Y/Q151M
SMILES,FI50 (ratio of EC50 against mutant virus:EC50 against wild-type xxLAI),FI90 (ratio of EC90 against mutant virus:EC90 against wild-type xxLAI)
"O=C1Nc2ccc(Cl)cc2[C@@](C#CC2CC2)(C(F)(F)F)O1 [EFV, efavirenz]",7.7,2
"CC(C)OC(=O)OCOP(=O)(CO[C@H](C)Cn1cnc2c(N)ncnc21)OCOC(=O)OC(C)C [TDF, Tenofovir disoproxil fumarate]",3.9,3.9
"OC[C@@H]1CC[C@H](n2cnc3c(O)ncnc32)O1 [ddI, 2′,3′-dideoxyinosine]",3.5,1.5

# Same assay, conditions: Human immunodeficiency virus 1, Lymphocyte
SMILES,EC50 [µM],EC90 [µM]
"O=C1Nc2ccc(Cl)cc2[C@@](C#CC2CC2)(C(F)(F)F)O1 [EFV, efavirenz]",0.2 ± 0.3,0.44 ± 0.6
"CC(C)OC(=O)OCOP(=O)(CO[C@H](C)Cn1cnc2c(N)ncnc21)OCOC(=O)OC(C)C [TDF, Tenofovir disoproxil fumarate]",0.7 ± 0.8,3.6 ± 2.2
"OC[C@@H]1CC[C@H](n2cnc3c(O)ncnc32)O1 [ddI, 2′,3′-dideoxyinosine]",40.5 ± 52.1,83.5 ± 28.6

# Test system: wild-type HIV-1xxLAI
# Test: Antiviral potency in primary human lymphocytes, wild type
# Type: cell-based
# Conditions: Human immunodeficiency virus 1, Lymphocyte; xxLAI; primary human lymphocytes; read-out: EC50
row,SMILES,EC50 [µM]
1,"O=C1Nc2ccc(Cl)cc2[C@@](C#CC2CC2)(C(F)(F)F)O1 [EFV, efavirenz]",0.02 ± 0.03
2,"CC(C)OC(=O)OCOP(=O)(CO[C@H](C)Cn1cnc2c(N)ncnc21)OCOC(=O)OC(C)C [TDF, Tenofovir disoproxil fumarate]",0.2 ± 0.2
3,"OC[C@@H]1CC[C@H](n2cnc3c(O)ncnc32)O1 [ddI, 2′,3′-dideoxyinosine]",11.5 ± 6.6

# Same assay, conditions: Human immunodeficiency virus 1, Lymphocyte; xxLAI; primary human lymphocytes; read-out: EC90
row,SMILES,EC90 [µM]
1,"O=C1Nc2ccc(Cl)cc2[C@@](C#CC2CC2)(C(F)(F)F)O1 [EFV, efavirenz]",0.2 ± 0.3
2,"CC(C)OC(=O)OCOP(=O)(CO[C@H](C)Cn1cnc2c(N)ncnc21)OCOC(=O)OC(C)C [TDF, Tenofovir disoproxil fumarate]",0.9 ± 0.8
3,"OC[C@@H]1CC[C@H](n2cnc3c(O)ncnc32)O1 [ddI, 2′,3′-dideoxyinosine]",55.4 ± 23

# Test system: various NRTI-resistant HIV-1
# Test: Antiviral potency against various NRTI-resistant HIV-1 in primary human lymphocytes (summary over strains)
# Type: cell-based
# Conditions: K65R, M184V, L74V, A62V/V75I/F77L/F116Y/Q151M, 4xAZT
# Excerpt: FI50 is the ratio of EC50 against mutant virus:EC50 against wild-type xxLAI. FI90 is the ratio of EC90 against mutant virus:EC90 against wild-type xxLAI.
row,SMILES,antiviral potency for wild-type HIV-1xxLAI versus NRTI-resistant HIV-1
1,"O=C1Nc2ccc(Cl)cc2[C@@](C#CC2CC2)(C(F)(F)F)O1 [EFV, efavirenz]",similarly potent across all NRTI resistant strains

# Test system: HIV-1 containing K65R
# Test: microbe, parasite or virus in culture
# Type: cell-based
# Conditions: Human immunodeficiency virus 1, Lymphocyte
SMILES,EC50 [µM],EC90 [µM]
"O=C1Nc2ccc(Cl)cc2[C@@](C#CC2CC2)(C(F)(F)F)O1 [EFV, efavirenz]",0.007,0.02 ± 0.01
"CC(C)OC(=O)OCOP(=O)(CO[C@H](C)Cn1cnc2c(N)ncnc21)OCOC(=O)OC(C)C [TDF, Tenofovir disoproxil fumarate]",0.4 ± 0.1,1.6 ± 0.5
"OC[C@@H]1CC[C@H](n2cnc3c(O)ncnc32)O1 [ddI, 2′,3′-dideoxyinosine]",21.2 ± 18.3,86.7 ± 0.8

# Same assay, conditions: K65R
SMILES,FI50 (ratio of EC50 against mutant virus:EC50 against wild-type xxLAI),FI90 (ratio of EC90 against mutant virus:EC90 against wild-type xxLAI)
"O=C1Nc2ccc(Cl)cc2[C@@](C#CC2CC2)(C(F)(F)F)O1 [EFV, efavirenz]",0.3,0.1
"CC(C)OC(=O)OCOP(=O)(CO[C@H](C)Cn1cnc2c(N)ncnc21)OCOC(=O)OC(C)C [TDF, Tenofovir disoproxil fumarate]",2.2,1.7
"OC[C@@H]1CC[C@H](n2cnc3c(O)ncnc32)O1 [ddI, 2′,3′-dideoxyinosine]",1.8,1.6

# Test system: HIV-1 containing M184V
# Test: microbe, parasite or virus in culture
# Type: cell-based
# Conditions: Human immunodeficiency virus 1, Lymphocyte
SMILES,EC50 [µM],EC90 [µM]
"O=C1Nc2ccc(Cl)cc2[C@@](C#CC2CC2)(C(F)(F)F)O1 [EFV, efavirenz]",0.01 ± 0.006,0.08 ± 0.08
"CC(C)OC(=O)OCOP(=O)(CO[C@H](C)Cn1cnc2c(N)ncnc21)OCOC(=O)OC(C)C [TDF, Tenofovir disoproxil fumarate]",0.09 ± 0.03,0.5 ± 0.3
"OC[C@@H]1CC[C@H](n2cnc3c(O)ncnc32)O1 [ddI, 2′,3′-dideoxyinosine]",11.5 ± 9.1,44.9 ± 26.2

# Same assay, conditions: M184V
SMILES,FI50 (ratio of EC50 against mutant virus:EC50 against wild-type xxLAI),FI90 (ratio of EC90 against mutant virus:EC90 against wild-type xxLAI)
"O=C1Nc2ccc(Cl)cc2[C@@](C#CC2CC2)(C(F)(F)F)O1 [EFV, efavirenz]",0.5,0.4
"CC(C)OC(=O)OCOP(=O)(CO[C@H](C)Cn1cnc2c(N)ncnc21)OCOC(=O)OC(C)C [TDF, Tenofovir disoproxil fumarate]",0.6,0.6
"OC[C@@H]1CC[C@H](n2cnc3c(O)ncnc32)O1 [ddI, 2′,3′-dideoxyinosine]",1,0.8

# Test system: HIV-1 containing L74V
# Test: microbe, parasite or virus in culture
# Type: cell-based
# Conditions: Human immunodeficiency virus 1, Lymphocyte
SMILES,EC50 [µM],EC90 [µM]
"O=C1Nc2ccc(Cl)cc2[C@@](C#CC2CC2)(C(F)(F)F)O1 [EFV, efavirenz]",0.06 ± 0.07,
"CC(C)OC(=O)OCOP(=O)(CO[C@H](C)Cn1cnc2c(N)ncnc21)OCOC(=O)OC(C)C [TDF, Tenofovir disoproxil fumarate]",,0.2 ± 0.1
"OC[C@@H]1CC[C@H](n2cnc3c(O)ncnc32)O1 [ddI, 2′,3′-dideoxyinosine]",13.2 ± 8.5,80.9 ± 16.6

# Same assay, conditions: L74V
SMILES,FI50 (ratio of EC50 against mutant virus:EC50 against wild-type xxLAI),FI90 (ratio of EC90 against mutant virus:EC90 against wild-type xxLAI)
"O=C1Nc2ccc(Cl)cc2[C@@](C#CC2CC2)(C(F)(F)F)O1 [EFV, efavirenz]",2.6,1.1
"CC(C)OC(=O)OCOP(=O)(CO[C@H](C)Cn1cnc2c(N)ncnc21)OCOC(=O)OC(C)C [TDF, Tenofovir disoproxil fumarate]",1.4,1.2
"OC[C@@H]1CC[C@H](n2cnc3c(O)ncnc32)O1 [ddI, 2′,3′-dideoxyinosine]",1.1,1.1
